Experiments:
[1] = tested on: Jurkat cells bearing azides (Ac4ManNAz-treated); experiment: Cell surface azide labeling and detection by fluorescence intensity (avidin-FITC); format: cell-based, Human
Method: FIG. 6 illustrates embodiments of cell-surface labeling with compounds 2 and 9. Jurkat cells grown for three days in the absence or presence of Ac4ManNAz (25 micromolar) were incubated a) with compounds 2 and 9 (30 micromolar) for 0-180 minutes or b) with compounds 2 and 9 (0-100 micromolar) for 1 hour at room temperature. Next, the cells were incubated with avidin-FITC for 15 minutes at 4° C., after which cell lysates were assessed for fluorescence intensity. Samples are indicated as follows: blank cells incubated with 2 (∘) or 9 (□), and Ac,ManNAz cells incubated with 2 (●) or 9 (▪).
Next, Jurkat cells were cultured in the presence of 25 micromolar N-azidoacetylmannosamine (Ac4ManNAz) for three days to metabolically introduce N-azidoacetylsialic acid (SiaNAz) moieties into glycoproteins (Luchansky and Bertozzi, Chem-BioChem 2004, 5:1706-1709). As a negative control, Jurkat cells were employed that were grown in the absence of Ac4ManNAz. The cells were exposed to a 30 micromolar solution of compound 9 for various time periods, and after washing, the cells were stained with avidin-fluorescein isothiocyanate (FITC) for 15 minutes at 4° C. The efficiency of the two-step cell-surface labeling was determined by measuring the fluorescence intensity of the cell lysates. […]

[2] = tested on: CHO cells bearing azides (Ac4ManNAz-treated); experiment: Cell labeling and detection by fluorescence (confocal) microscopy; format: cell-based, Chinese hamster
Method: FIG. 8 illustrates fluorescence images for embodiments of cells labeled with compound 9 and avidin-Alexa Fluor 488. CHO cells grown for 3 days in the absence (d-f) or presence (a-c) of Ac4ManNAz (100 micromolar) were incubated with compound 9 (30 micromolar) for 1 hour at 4° C. (a, d) or room temperature (b, c, e, f). Next, cells were incubated with avidin-Alexa Fluor 488 for 15 minutes at 4° C. and, after washing, fixing, and staining for the nucleus with far-red-fluorescent dye TO-PRO, imaged (a, b, d, e) or after washing incubated for 1 hour at 37° C. before fixing, nucleus staining, and imaging (c, f).
Next, attention was focused on visualizing azido-containing glycoconjugates of living cells by confocal microscopy. Thus, adherent Chinese hamster ovary (CHO) cells were cultured in the presence of Ac4ManNAz (100 micromolar) for three days. The resulting cell-surface azido moieties were treated with 9 (30 micromolar) for 1 hour and then with avidin-AlexaFluor488 for 15 minutes at 4° C.
Cell-surface glycoconjugates are constantly recycled by endocytosis, and to monitor this process, metabolically labeled cells were reacted with 9 and avidin-AlexaFluor488 according to the standard protocol and incubated at 37° C. for 1 hour before examination by confocal microscopy.
Chinese hamster ovary (CHO) cells (Clone K1; ATCC) were cultured in Kaighn's modification of Ham's F-12 medium (F-12K) with L-glutamine (2 mM), adjusted to contain sodium bicarbonate (1.5 g L^−1) and supplemented with penicillin (100 u mL^−1)/streptomycin (100 micrograms mL^−1 and FBS (10%). Cells were maintained in a humid 5% CO2 atmosphere at 37° C. CHO cells were grown in the presence of Ac4ManNaz (100 micromolar final concentration) for 3 days to metabolically incorporate SiaNAz into their cell surface glycoproteins. CHO cells bearing azides and untreated control cells were then transferred to a glass coverslip and cultured for 36 hours in their original medium. […] The step size, based on the calculated optimum for each objective, was between 0.25 and 0.5 micrometers. […]

[3] = Solubility seen in the labeling experiment; format: physicochemical; settings: no increase in labeling above 100 micromolar
Method: The concentration dependence of the cell-surface labeling was studied by incubation of cells with various concentrations of 2 and 9 followed by staining with avidin-FTIC (FIG. 6b).

[4] = Cycloaddition with benzyl azide, second-order rate constant by 1H NMR; format: physicochemical; settings: for second-order rate constant: NMR
Method: However, upon exposure to azides a fast reaction took place and gave the corresponding triazoles in high yield. For example, triazoles 10-13 were obtained in quantitative yields as mixtures of regioisomers by reaction of the corresponding azido-containing sugar and amino acid derivatives with 3 in methanol for 30 minutes (Scheme 2; FIG. 3 and FIG. 4). The progress of the reaction of 3 with benzyl azide in methanol and in a mixture of water/acetonitrile (1:4 v/v) was monitored by NMR spectroscopy by integration of the benzylic proton signals, and second-order rate constants of 0.17 and 2.3 m^−1s^−1, respectively, were determined.
A number of analogs (63-68) of 4-dibenzocyclooctynol (61) were prepared and the influence of these modifications on the reaction rate of the cycloaddition with benzyl azide was determined by integration of the benzylic proton signals in ^1H NMR spectrum.
General Method for Calculating Second Order Rate Constants by NMR.
Substrates were dissolved separately in the appropriate solvent and mixed 1:1 at 6 mM concentrations. Percent conversion was monitored both by disappearance of starting material and appearance of the two regioisomeric products as determined by integration at multiple chemical shifts. Second order rate constants for the reaction were determined by plotting the 1/[substrates] versus time and analysis by linear regression. Second order rate constants correspond to one half of the determined slope.

[5] = Shelf life and reactivity towards nucleophiles; format: physicochemical
[6] = cycloaddition with benzyl azide

SMILES: O=C(CCCCC1SCC2NC(=O)NC21)NCCOCCOCCNC(=O)OC1Cc2ccccc2C#Cc2ccccc21 (stereo not drawn) [Compound 9, Carbonic acid 7,8-didehydro-1,2:5,6-dibenzocyclooctene-3-yl ester, 8′-biotinylamine-3′,6′-dioxaoctane 1′-amide]
- incubation time after which labeling was almost complete ([1]; 30 micromolar, room temperature, then avidin-FITC): 60 min
- concentration at which reliable fluorescent labeling was achieved ([1]; 1 hour at room temperature): 3 µM
- labeling efficiency at ambient temperature versus 4° C. ([2]; 30 micromolar, 1 hour): equally efficient when performed at either ambient temperature or 4 °C
- location of staining ([2]; 30 micromolar, 1 hour, then avidin-AlexaFluor488): staining was observed only at the surface
- internalization of labeled glycoproteins ([2]; after labeling, incubated at 37° C. for 1 hour): a significant quantity of labeled glycoproteins had been internalized into vesicular compartments
- solubility [3]: limited solubility
- effect on cell viability (Jurkat cells; two-step labeling, morphology and exclusion of trypan blue): no effect on cell viability

SMILES: O=C1Cc2ccccc2C#Cc2ccccc21 [Compound 67, 6H-11,12-didehydro-dibenzo[a,e]cyclooctatrien-5-one]
- reaction rate compared with 61 (in words) [4, 6]: slightly higher reaction rate than 1

SMILES: OC1Cc2ccccc2C#Cc2ccccc21 (stereo not drawn) [Compound 3, 3-Hydroxy-7,8-didehydro-1,2:5,6-dibenzocyclooctene]
- rate constant compared with cyclooctyne 1 ([4]; acetonitrile/water): three orders of magnitude greater
- second-order rate constant ([4]; reaction with benzyl azide in methanol): 0.17 m^−1s^−1
- second-order rate constant ([4]; reaction with benzyl azide in water/acetonitrile (1:4 v/v)): 2.3 m^−1s^−1
- shelf life [5]: excellent, long shelf life
- reactivity with nucleophiles ([5]; thiols and amines): did not react with nucleophiles such as thiols and amines

SMILES: C1#Cc2ccccc2CCc2ccccc21 [Compound 62, reference compound]
- times slower reaction than 4-dibenzocyclooctynol (61) [4, 6]: approximately 70 times

SMILES: [Cl][Cu] [Cu^ICl, reference compound]
- cell death (Jurkat cells): approximately 98%

Source: patent US9932297B2, “Alkynes and methods of reacting alkynes with 1,3-dipole-functional compounds” (UNIVERSITY OF GEORGIA RESEARCH FOUNDATION, INC., priority 2007, dated 2018)
